Measured values taken from PubChem BioAssay AID1963833 (Molecular Pharmacology Branch, DTP, NCI, 2024).

Tested on: 883617-216-R-J1-PDC complex spheroid viability
Assay: Anticancer human tumor 883617-216-R-J1-PDC patient-derived bladder carcinoma cell line growth inhibition [POLQ]
Details: for IC50: curve of first compound; for viability, T/C: stronger effect = lower value
Method in brief: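 Three-cell-type spheroids modelling solid tumor plus stroma served as the readout system; POL inhibitors were tested individually and in combination, concentration ranges set by clinical Cmax where known.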

[1] = second compound 0.0316 µM, first compound 0.0316 µM
[2] = second compound 0.0316 µM, first compound 0.1 µM
[3] = second compound 0.0316 µM, first compound 0.316 µM
[4] = second compound 0.0316 µM, first compound 1 µM
[5] = second compound 0.0316 µM, first compound 3.16 µM
[6] = second compound 0.0316 µM, first compound 10 µM
[7] = second compound 0.1 µM, first compound 0.0316 µM
[8] = second compound 0.1 µM, first compound 0.1 µM
[9] = second compound 0.1 µM, first compound 0.316 µM
[10] = second compound 0.1 µM, first compound 1 µM
[11] = second compound 0.1 µM, first compound 3.16 µM
[12] = second compound 0.1 µM, first compound 10 µM
[13] = second compound 0.316 µM, first compound 0.0316 µM
[14] = second compound 0.316 µM, first compound 0.1 µM
[15] = second compound 0.316 µM, first compound 0.316 µM
[16] = second compound 0.316 µM, first compound 1 µM
[17] = second compound 0.316 µM, first compound 3.16 µM
[18] = second compound 0.316 µM, first compound 10 µM
[19] = second compound 1 µM, first compound 0.0316 µM
[20] = second compound 1 µM, first compound 0.1 µM
[21] = second compound 1 µM, first compound 0.316 µM
[22] = second compound 1 µM, first compound 1 µM
[23] = second compound 1 µM, first compound 3.16 µM
[24] = second compound 1 µM, first compound 10 µM
[25] = second compound 3.16 µM, first compound 0.0316 µM
[26] = second compound 3.16 µM, first compound 0.1 µM
[27] = second compound 3.16 µM, first compound 0.316 µM
[28] = second compound 3.16 µM, first compound 1 µM
[29] = second compound 3.16 µM, first compound 3.16 µM
[30] = second compound 3.16 µM, first compound 10 µM
[31] = second compound 10 µM, first compound 0.0316 µM
[32] = second compound 10 µM, first compound 0.1 µM
[33] = second compound 10 µM, first compound 0.316 µM
[34] = second compound 10 µM, first compound 1 µM
[35] = second compound 10 µM, first compound 3.16 µM
[36] = second compound 10 µM, first compound 10 µM
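Also: spheroids exposed to compounds for seven days before readout.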
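For viability, T/C in this document: 100% = DMSO vehicle control viability.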

For `COc1cc(C2c3cc4c(cc3C(OC3OC5COC(C)OC5C(O)C3O)C3COC(=O)C23)OCO4)cc(OC)c1O` (centres undefined) + COC1C(OC(N)=O)C(O)C(Oc2ccc3c(O)c(NC(=O)c4ccc(O)c(CC=C(C)C)c4)c(=O)oc3c2C)OC1(C)C, the IC50 (second compound 0.0316 µM) was > 10000 nM, the IC50 (second compound 0.1 µM) was > 10000 nM and the IC50 (second compound 0.316 µM) was > 10000 nM. The IC50 (second compound 1 µM) was > 10000 nM, the IC50 (second compound 3.16 µM) was > 10000 nM and the IC50 (second compound 10 µM) was > 10000 nM. The viability, T/C [1] was 96.1%, the viability, T/C [2] was 90% and the viability, T/C [3] was 74.3%. It also gave a viability, T/C [4] of 61.8%, a viability, T/C [5] of 59.5% and a viability, T/C [6] of 51.7%. For the same compound, the viability, T/C [7] was 109%, the viability, T/C [8] was 89.6% and the viability, T/C [9] was 71.1%. The viability, T/C [10] was 69%, the viability, T/C [11] was 51.2% and the viability, T/C [12] was 59.3%. For the same compound, the viability, T/C [13] was 87%, the viability, T/C [14] was 90.2% and the viability, T/C [15] was 78.9%. For the same compound, the viability, T/C [16] was 72.2%, the viability, T/C [17] was 70.8% and the viability, T/C [18] was 51%. The viability, T/C [19] was 97%, the viability, T/C [20] was 89.5% and the viability, T/C [21] was 72.9%. For the same compound, the viability, T/C [22] was 57.9%, the viability, T/C [23] was 57.3% and the viability, T/C [24] was 48.9%. It also gave a viability, T/C [25] of 106%, a viability, T/C [26] of 92.1% and a viability, T/C [27] of 72.7%. It also gave a viability, T/C [28] of 65.7%, a viability, T/C [29] of 57.4% and a viability, T/C [30] of 52.7%. For the same compound, the viability, T/C [31] was 97.2%, the viability, T/C [32] was 95.4% and the viability, T/C [33] was 73%. It also gave a viability, T/C [34] of 59.8%, a viability, T/C [35] of 55.6% and a viability, T/C [36] of 53%.
Compound `CC1COCCN1c1cc(C2(S(C)(=N)=O)CC2)nc(-c2ccnc3[nH]ccc23)n1` (centres undefined) + COC1C(OC(N)=O)C(O)C(Oc2ccc3c(O)c(NC(=O)c4ccc(O)c(CC=C(C)C)c4)c(=O)oc3c2C)OC1(C)C has an IC50 (second compound 0.0316 µM) of 2630 nM, an IC50 (second compound 0.1 µM) of 2110 nM and an IC50 (second compound 0.316 µM) of 2530 nM. For the same compound, the IC50 (second compound 1 µM) was 3630 nM, the IC50 (second compound 3.16 µM) was 1830 nM and the IC50 (second compound 10 µM) was 2950 nM. It also gave a viability, T/C [1] of 89%, a viability, T/C [2] of 101% and a viability, T/C [3] of 84.5%. It also gave a viability, T/C [4] of 83.5%, a viability, T/C [5] of 43.5% and a viability, T/C [6] of 31.2%. For the same compound, the viability, T/C [7] was 91.1%, the viability, T/C [8] was 91.5% and the viability, T/C [9] was 87.3%. It also gave a viability, T/C [10] of 69.1%, a viability, T/C [11] of 39.1% and a viability, T/C [12] of 37.1%. It also gave a viability, T/C [13] of 99.4%, a viability, T/C [14] of 89.6% and a viability, T/C [15] of 82.7%. The viability, T/C [16] was 67.8%, the viability, T/C [17] was 42.7% and the viability, T/C [18] was 38.7%. The viability, T/C [19] was 102%, the viability, T/C [20] was 84.8% and the viability, T/C [21] was 91.2%. The viability, T/C [22] was 70.8%, the viability, T/C [23] was 51.9% and the viability, T/C [24] was 31.3%. The viability, T/C [25] was 88.3%, the viability, T/C [26] was 97.3% and the viability, T/C [27] was 97.1%. For the same compound, the viability, T/C [28] was 61.8%, the viability, T/C [29] was 45.7% and the viability, T/C [30] was 32.6%. It also gave a viability, T/C [31] of 85.1%, a viability, T/C [32] of 82.4% and a viability, T/C [33] of 89.9%. The viability, T/C [34] was 65%, the viability, T/C [35] was 52.5% and the viability, T/C [36] was 40.5%.
